Assays:
[1] = tested on: Schoenoplectiella juncoides; assay: Herbicidal activity against Schoenoplectiella juncoides under greenhouse condition compound treated at 0.5 leaf stage measured after 14 to 20 days; type: functional
Echinochloa oryzicola [2] = assay: Herbicidal activity against Echinochloa oryzicola under greenhouse condition compound treated at emergence stage measured after 14 to 20 days; type: functional
Oryza sativa [3] = assay: Phytotoxicity against Oryza sativa cv. Kinuhikari (rice) planted at 3 cm depth measured after 20 to 25 days; type: organism-based; details: in vivo
Echinochloa oryzicola [4] = assay: Herbicidal activity against Echinochloa oryzicola under greenhouse condition compound treated at 2.5 leaf stage measured after 14 to 20 days; type: functional
Rotala indica [5] = assay: Herbicidal activity against Rotala indica at 200 g a.i/ha treated at 1.6-leaf stage measured after 26 days by outdoor concrete pot test; type: functional
Oryza sativa [6] = assay: Phytotoxicity against Oryza sativa cv. Kinuhikari (rice) at 100 g a.i/ha treated at 1.6-leaf stage measured after 26 days by outdoor concrete pot test; type: organism-based; details: in vivo, other, 624 h
Oryza sativa [7] = assay: Phytotoxicity against Oryza sativa cv. Kinuhikari (rice) at 200 g a.i/ha treated at 1.6-leaf stage measured after 26 days by outdoor concrete pot test; type: organism-based; details: in vivo, other, 624 h
Echinochloa oryzicola [8] = assay: Herbicidal activity against Echinochloa oryzicola at 100 g a.i/ha treated at 1.6-leaf stage measured after 26 days by outdoor concrete pot test; type: functional
Oryza sativa [9] = assay: Phytotoxicity against Oryza sativa cv. Kinuhikari (rice) at 300 g a.i/ha treated at 2.3-leaf stage measured after 26 days by outdoor concrete pot test; type: organism-based; details: in vivo, other, 624 h
Echinochloa oryzicola [10] = assay: Herbicidal activity against Echinochloa oryzicola at 100 g a.i/ha treated at emergence stage measured after 26 days by outdoor concrete pot test; type: functional
Rotala indica [11] = assay: Herbicidal activity against Rotala indica compound treated at 1 to 2.2-leaf stage measured after 26 days by outdoor concrete pot test; type: functional
[12] = tested on: Schoenoplectiella juncoides; assay: Herbicidal activity against Schoenoplectiella juncoides at 200 g a.i/ha treated at 1.6-leaf stage measured after 26 days by outdoor concrete pot test; type: functional
Rotala indica [13] = assay: Herbicidal activity against Rotala indica at 100 g a.i/ha treated at 1.6-leaf stage measured after 26 days by outdoor concrete pot test; type: functional
[14] = tested on: Schoenoplectiella juncoides; assay: Herbicidal activity against Schoenoplectiella juncoides at 200 g a.i/ha treated at emergence stage measured after 26 days by outdoor concrete pot test; type: functional
Pontederia vaginalis [15] = assay: Herbicidal activity against Monochoria vaginalis at 200 g a.i/ha treated at 2.3-leaf stage measured after 26 days by outdoor concrete pot test; type: functional
Oryza sativa [16] = assay: Phytotoxicity against Oryza sativa cv. Kinuhikari (rice) planted at 3 cm depth measured after 26 days; type: organism-based; details: in vivo, 624 h
Lindernia procumbens [17] = assay: Herbicidal activity against Lindernia procumbens at 100 g a.i/ha treated at emergence stage measured after 26 days by outdoor concrete pot test; type: functional
Lindernia procumbens [18] = assay: Herbicidal activity against Lindernia procumbens at 100 g a.i/ha treated at 1.6-leaf stage measured after 26 days by outdoor concrete pot test; type: functional
Pontederia vaginalis [19] = assay: Herbicidal activity against Monochoria vaginalis at 300 g a.i/ha treated at 2.3-leaf stage measured after 26 days by outdoor concrete pot test; type: functional
Rotala indica [20] = assay: Herbicidal activity against Rotala indica at 200 g a.i/ha treated at 2.3-leaf stage measured after 26 days by outdoor concrete pot test; type: functional
Pontederia vaginalis [21] = assay: Herbicidal activity against Monochoria vaginalis at 100 g a.i/ha treated at 1.6-leaf stage measured after 26 days by outdoor concrete pot test; type: functional
Lindernia procumbens [22] = assay: Herbicidal activity against Lindernia procumbens compound treated at 1 to 2.2-leaf stage measured after 26 days by outdoor concrete pot test; type: functional
Echinochloa oryzicola [23] = assay: Herbicidal activity against Echinochloa oryzicola at 300 g a.i/ha treated at 2.3-leaf stage measured after 26 days by outdoor concrete pot test; type: functional
Rotala indica [24] = assay: Herbicidal activity against Rotala indica at 100 g a.i/ha treated at emergence stage measured after 26 days by outdoor concrete pot test; type: functional
[25] = tested on: Schoenoplectiella juncoides; assay: Herbicidal activity against Schoenoplectiella juncoides at 300 g a.i/ha treated at 2.3-leaf stage measured after 26 days by outdoor concrete pot test; type: functional
Lindernia procumbens [26] = assay: Herbicidal activity against Lindernia procumbens at 200 g a.i/ha treated at 1.6-leaf stage measured after 26 days by outdoor concrete pot test; type: functional
Lindernia procumbens [27] = assay: Herbicidal activity against Lindernia procumbens at 200 g a.i/ha treated at 2.3-leaf stage measured after 26 days by outdoor concrete pot test; type: functional
Elatine triandra [28] = assay: Herbicidal activity against Elatine triandra at 200 g a.i/ha treated at 2.3-leaf stage measured after 26 days by outdoor concrete pot test; type: functional
[29] = tested on: Schoenoplectiella juncoides; assay: Herbicidal activity against Schoenoplectiella juncoides compound treated at 0.5-leaf stage measured after 26 days by outdoor concrete pot test; type: functional
Elatine triandra [30] = assay: Herbicidal activity against Elatine triandra at 100 g a.i/ha treated at 1.6-leaf stage measured after 26 days by outdoor concrete pot test; type: functional
Echinochloa oryzicola [31] = assay: Herbicidal activity against Echinochloa oryzicola at 200 g a.i/ha treated at 2.3-leaf stage measured after 26 days by outdoor concrete pot test; type: functional
Rotala indica [32] = assay: Herbicidal activity against Rotala indica at 200 g a.i/ha treated at emergence stage measured after 26 days by outdoor concrete pot test; type: functional
Echinochloa oryzicola [33] = assay: Herbicidal activity against Echinochloa oryzicola at 200 g a.i/ha treated at 1.6-leaf stage measured after 26 days by outdoor concrete pot test; type: functional
Elatine triandra [34] = assay: Herbicidal activity against Elatine triandra at 100 g a.i/ha treated at emergence stage measured after 26 days by outdoor concrete pot test; type: functional
Elatine triandra [35] = assay: Herbicidal activity against Elatine triandra compound treated at 1 to 2.2-leaf stage measured after 26 days by outdoor concrete pot test; type: functional
Pontederia vaginalis [36] = assay: Herbicidal activity against Monochoria vaginalis at 100 g a.i/ha treated at emergence stage measured after 26 days by outdoor concrete pot test; type: functional
[37] = tested on: Schoenoplectiella juncoides; assay: Herbicidal activity against Schoenoplectiella juncoides at 200 g a.i/ha treated at 2.3-leaf stage measured after 26 days by outdoor concrete pot test; type: functional
Echinochloa oryzicola [38] = assay: Herbicidal activity against Echinochloa oryzicola compound treated at 2.5-leaf stage measured after 26 days by outdoor concrete pot test; type: functional
Pontederia vaginalis [39] = assay: Herbicidal activity against Monochoria vaginalis at 200 g a.i/ha treated at 1.6-leaf stage measured after 26 days by outdoor concrete pot test; type: functional
Oryza sativa [40] = assay: Phytotoxicity against Oryza sativa cv. Kinuhikari (rice) at 200 g a.i/ha treated at emergence stage measured after 26 days by outdoor concrete pot test; type: organism-based; details: in vivo, other, 624 h
Lindernia procumbens [41] = assay: Herbicidal activity against Lindernia procumbens at 200 g a.i/ha treated at emergence stage measured after 26 days by outdoor concrete pot test; type: functional
Lindernia procumbens [42] = assay: Herbicidal activity against Lindernia procumbens at 300 g a.i/ha treated at 2.3-leaf stage measured after 26 days by outdoor concrete pot test; type: functional
[43] = tested on: Schoenoplectiella juncoides; assay: Herbicidal activity against Schoenoplectiella juncoides at 100 g a.i/ha treated at 1.6-leaf stage measured after 26 days by outdoor concrete pot test; type: functional
Echinochloa oryzicola [44] = assay: Herbicidal activity against Echinochloa oryzicola at 200 g a.i/ha treated at emergence stage measured after 26 days by outdoor concrete pot test; type: functional
Elatine triandra [45] = assay: Herbicidal activity against Elatine triandra at 200 g a.i/ha treated at emergence stage measured after 26 days by outdoor concrete pot test; type: functional
[46] = tested on: Schoenoplectiella juncoides; assay: Herbicidal activity against Schoenoplectiella juncoides at 100 g a.i/ha treated at emergence stage measured after 26 days by outdoor concrete pot test; type: functional
Elatine triandra [47] = assay: Herbicidal activity against Elatine triandra at 300 g a.i/ha treated at 2.3-leaf stage measured after 26 days by outdoor concrete pot test; type: functional
Oryza sativa [48] = assay: Phytotoxicity against Oryza sativa cv. Kinuhikari (rice) at 200 g a.i/ha treated at 2.3-leaf stage measured after 26 days by outdoor concrete pot test; type: organism-based; details: in vivo, other, 624 h
Oryza sativa [49] = assay: Phytotoxicity against Oryza sativa cv. Kinuhikari (rice) at 100 g a.i/ha treated at emergence stage measured after 26 days by outdoor concrete pot test; type: organism-based; details: in vivo, other, 624 h
Pontederia vaginalis [50] = assay: Herbicidal activity against Monochoria vaginalis at 200 g a.i/ha treated at emergence stage measured after 26 days by outdoor concrete pot test; type: functional
Elatine triandra [51] = assay: Herbicidal activity against Elatine triandra at 200 g a.i/ha treated at 1.6-leaf stage measured after 26 days by outdoor concrete pot test; type: functional
Echinochloa oryzicola [52] = assay: Herbicidal activity against Echinochloa oryzicola compound treated at emergence stage measured after 26 days by outdoor concrete pot test; type: functional
Rotala indica [53] = assay: Herbicidal activity against Rotala indica at 300 g a.i/ha treated at 2.3-leaf stage measured after 26 days by outdoor concrete pot test; type: functional
Echinochloa oryzicola [54] = assay: Herbicidal activity against Echinochloa oryzicola at 300 g a.i/ha treated at 1.6-leaf stage measured after 26 days by outdoor concrete pot test; type: functional
Elatine triandra [55] = assay: Herbicidal activity against Elatine triandra at 300 g a.i/ha treated at 1.6-leaf stage measured after 26 days by outdoor concrete pot test; type: functional
Pontederia vaginalis [56] = assay: Herbicidal activity against Monochoria vaginalis at 300 g a.i/ha treated at 1.6-leaf stage measured after 26 days by outdoor concrete pot test; type: functional
Lindernia procumbens [57] = assay: Herbicidal activity against Lindernia procumbens at 300 g a.i/ha treated at 1.6-leaf stage measured after 26 days by outdoor concrete pot test; type: functional
[58] = tested on: Schoenoplectiella juncoides; assay: Herbicidal activity against Schoenoplectiella juncoides at 300 g a.i/ha treated at 1.6-leaf stage measured after 26 days by outdoor concrete pot test; type: functional
Rotala indica [59] = assay: Herbicidal activity against Rotala indica at 300 g a.i/ha treated at 1.6-leaf stage measured after 26 days by outdoor concrete pot test; type: functional

CN(C)C(=O)OC(c1cnccc1C(F)(F)F)c1cccc2c1OCO2 (stereo not drawn)
63 gAi/ha: ED80 (Echinochloa oryzicola [2])
250 gAi/ha: ED80 [1]
500 gAi/ha: ED20 (Oryza sativa [3])

CN(C)C(=O)OC(c1cnccc1Br)c1cccc2ccccc12 (stereo not drawn)
31 gAi/ha: ED80 (Echinochloa oryzicola [2])
250 gAi/ha: ED80 (Echinochloa oryzicola [4]) | ED80 [1]
2000 gAi/ha: ED20 (Oryza sativa [3])

CN(C)C(=O)OC(c1cnccc1C(F)(F)F)c1cccc2ccccc12 (racemic)
95%: Efficacy (Echinochloa oryzicola [8]) | Efficacy (Echinochloa oryzicola [23]) | Efficacy (Echinochloa oryzicola [31]) | Efficacy (Echinochloa oryzicola [33])
31 gAi/ha: ED80 (Echinochloa oryzicola [2]) | ED80 (Echinochloa oryzicola [52])
89%: Efficacy (Pontederia vaginalis [21])
100 gAi/ha: ED80 (Rotala indica [11]) | ED80 (Lindernia procumbens [22]) | ED80 (Elatine triandra [35])
0%: Efficacy (Oryza sativa [6]) | Efficacy (Oryza sativa [7]) | Efficacy [12] | Efficacy [14] | Efficacy [25] | Efficacy [37] | Efficacy [43] | Efficacy [46] | Efficacy (Oryza sativa [48])
125 gAi/ha: ED80 (Echinochloa oryzicola [4]) | ED80 (Echinochloa oryzicola [38])
250 gAi/ha: ED80 [1] | ED80 [29]
100%: Efficacy (Rotala indica [5]) | Efficacy (Echinochloa oryzicola [10]) | Efficacy (Rotala indica [13]) | Efficacy (Lindernia procumbens [17]) | Efficacy (Lindernia procumbens [18]) | Efficacy (Pontederia vaginalis [19]) | Efficacy (Rotala indica [20]) | Efficacy (Rotala indica [24]) | Efficacy (Lindernia procumbens [26]) | Efficacy (Lindernia procumbens [27]) | Efficacy (Elatine triandra [28]) | Efficacy (Elatine triandra [30]) | Efficacy (Rotala indica [32]) | Efficacy (Elatine triandra [34]) | Efficacy (Pontederia vaginalis [36]) | Efficacy (Pontederia vaginalis [39]) | Efficacy (Lindernia procumbens [41]) | Efficacy (Lindernia procumbens [42]) | Efficacy (Echinochloa oryzicola [44]) | Efficacy (Elatine triandra [45]) | Efficacy (Elatine triandra [47]) | Efficacy (Pontederia vaginalis [50]) | Efficacy (Elatine triandra [51]) | Efficacy (Rotala indica [53])
16%: Efficacy (Oryza sativa [40])
11%: Efficacy (Oryza sativa [49])
2000 gAi/ha: ED20 (Oryza sativa [16]) | ED20 (Oryza sativa [3])
6%: Efficacy (Oryza sativa [9])
99%: Efficacy (Pontederia vaginalis [15])

CCN(CC)C(=O)n1cnc(S(=O)(=O)c2c(C)cc(C)cc2C)n1 [CAFENSTROLE]
50%: Efficacy (Pontederia vaginalis [56])
100%: Efficacy (Echinochloa oryzicola [54]) | Efficacy (Elatine triandra [55]) | Efficacy (Lindernia procumbens [57]) | Efficacy (Rotala indica [59])
99%: Efficacy (Lindernia procumbens [42]) | Efficacy (Elatine triandra [47]) | Efficacy (Rotala indica [53])
95%: Efficacy (Echinochloa oryzicola [23])
0%: Efficacy (Oryza sativa [9]) | Efficacy (Pontederia vaginalis [19]) | Efficacy [25] | Efficacy [58]
